The source of these data is patent US8987320B2, “Solid salt forms of a pyrrole substituted 2-indolinone” (Zoetis LLC, priority 2005, dated 2015).

≈ marks a conversion by molar mass, not a printed value.

A short description of data set [1]: Dynamic moisture sorption gravimetry (DMSG) of salts of Compound I. It is filed as physicochemical. How it is done: Dynamic Moisture Sorption Gravimetry (DMSG).
DMSG isotherm was collected on a temperature controlled atmospheric microbalance. Approximately 10 mg samples were placed in the sample pan of the balance. The humidity was sequentially varied from room relative humidity (RH) to 0% RH and was then increased to 90% RH followed by a decrease of RH to 0% again in 3% RH steps. The mass was then measured every two minutes. The RH was stepped to the next target value when change of the sample mass was less than 0.5 μg in 10 min. The Visual Basic program dmsgscn2.exe was used to control the data collection and export the information to an Excel spreadsheet.

Data set [2] in a line: Estimation of solubility in various solvents by step-wise solvent addition. It is filed as physicochemical. Particulars: 23 °C, organic solvent or mixture, thermodynamic from solid, 23° C., read-out: Estimated solubility. How it is done: Samples of 1-2 mg of Compound I phosphate (lot 35282-CS-51) were transferred to 10 mL glass vials (tared) and were weighed (accurate to 0.1 mg). Solvents were added to the vials (one solvent to each vial) in a step-wise fashion, with 0.5 mL of solvent added at each step. Solvents used were buffer (pH=2), buffer (pH=5), water, methanol, tetrahydrofuran (THF), acetonitrile, and acetone. After each addition, the vial was capped and shaken. The dissolution of solid was visually observed. If no obvious dissolution was observed, more solvent was added immediately. If dissolution was apparent, the vial was left on the bench for at least 30 minutes before the next addition of solvent. This step was repeated until no crystals were visible against a black and a white background. The solubility was then bracketed by dividing the weight of the compound by the final volume and the volume before the last addition. If a solid remained after the addition of 10 mL of solvent, the solubility was expressed as less than the weight divided by the final volume. If the solid was completely dissolved after the first addition of solvent, the solubility was expressed as greater than the weight divided by the solvent volume. All experiments were conducted at room temperature.

For the next data set, the system named is canine MCTs. Particulars: dog, in vivo; cited from earlier work.
For the next data set, the system named is KIT. The following applies: in vitro, cited from earlier work.
A short description of data set [3]: Solubility of Compound I in pH 6 phosphate buffer. The format is physicochemical. The following applies: aqueous buffer; pH 6 phosphate buffer at 25° C. How it is done: Compound I readily crystallizes. Its solubility is about 10 μg/mL in pH 6 phosphate buffer at 25° C. When the compound was synthesized, very fine particles precipitated out of solution during the last step of synthesis. Subsequent isolation of these fine particles by filtration was slow, and a hard cake resulted after filtration. There is a need for a salt of Compound I which has physical stability and desirable physical properties.

On the set-up of data set [4]: species or system rodent. The following applies: in vivo. How it is done:
Based on preclinical work in rodent models, the therapeutic range of Compound I for target inhibition was considered to be 50-100 ng/ml for 12 h of a 24-h dosing period. […] In one animal, the plasma concentration of Compound I phosphate was outside the range of the other samples (0.3 ng/ml).

A short description of data set [5]: Relative physical stability of Compound I phosphate polymorphs standing in solvent. It is filed as physicochemical. The following applies: among non-solvated polymorphs, in contact with solvent. How it is done: Such concentrated solutions were prepared by dissolving Compound I free base in about 1 M phosphoric acid. For example, about 70 mg of Compound I free base could be dissolved in 1 mL of 1 M phosphoric acid. However, the amount of Compound I free base and phosphoric acid used depended on the desired concentration and batch size of the solution. In the example in which the precipitate was vacuum filtered immediately after precipitation, about 1 mL of the desired solution was then dripped into about 10 mL of ten anti-solvents to precipitate the salt crystals out. These solvents were water plus acetonitrile (ANC), ethanol, methanol, acetone, acetonitrile, THF, ethyl acetate, hexane, methylene chloride (CH2Cl2), and isopropyl alcohol (IPA). In the example in which the precipitate was vacuum filtered after standing overnight or for three days, the additional solvents of methyl ethyl ketone (MEK) and dioxane were used. Some organic solvents, e.g., ethyl acetate, hexane, CH2C12, are not miscible with water and two layers of solvents were observed. […] In those cases, about 1 mL of methanol was added as a bridging solvent, to increase the miscibility between the two layers. Methanol appeared to work well to increase the miscibility because colorless organic layer became yellow as soon as methanol was added. […] The powder was then analyzed. […]

As to `Cc1[nH]c(/C=C2\C(=O)Nc3ccc(F)cc32)c(C)c1C(=O)NCCN1CCCC1.O=C(O)CC(O)(CC(=O)O)C(=O)O` [Compound I citrate], the “% water at 80% RH” value in data set [1] is around 3.8%. The “water at 80 percent humidity” value in data set [1] (80 percent relative humidity) is given as “about 3.8%”.

In general, solubility refers to how much of the substance goes into solution per volume. As for `Cc1[nH]c(/C=C2\C(=O)Nc3ccc(F)cc32)c(C)c1C(=O)NCCN1CCCC1` [Compound I free base (polymorph Form A), 5-[5-fluoro-2-oxo-1,2-dihydro-indol-(3Z)-ylidenemethyl]-2,4-dimethyl-1H-pyrrole-3-carboxylic acid (2-pyrrolidin-1-yl-ethyl)-amide], the solubility in data set [2] (acetone, Acetone) was below 160 µg/mL; in data set [2] (acetonitrile, Acetonitrile) it was below 80 µg/mL; in data set [2] (methanol, methanol) it was 210 to 310 µg/mL (≈ 530 to 782 µM); in data set [2] (tetrahydrofuran (THF), THF), 320 to 400 µg/mL (≈ 807 to 1010 µM).

With `Cc1[nH]c(/C=C2\C(=O)Nc3ccc(F)cc32)c(C)c1C(=O)NCCN1CCCC1` [Compound I, 5-[5-fluoro-2-oxo-1,2-dihydro-indol-(3Z)-ylidenemethyl]-2,4-dimethyl-1H-pyrrole-3-carboxylic acid (2-pyrrolidin-1-yl-ethyl)-amide], the “% water at 80% RH” value in data set [1] is listed as around 1%. Further, the “canine MCTs with durable objective responses (partial and complete responses)” value in the data set with canine MCTs is given as 11 of 22 canine MCTs. Besides, the “potency of blocking phosphorylation of wild-type vs ITD mutant KIT” value in the data set with KIT (cellular assays) was “comparable potency”. Also, the “effect on malignant mast cell lines expressing various forms of mutant KIT” value with KIT was “inhibit KIT phosphorylation, arrest cell proliferation, and induce cell cycle arrest and apoptosis”. The solubility in data set [3] is around 10 µg/mL (≈ 25.2 µM). Also, in data set [4], the “therapeutic range for target inhibition (plasma)” value is 50 to 100 ng/mL.

Regarding `Cc1[nH]c(/C=C2\C(=O)Nc3ccc(F)cc32)c(C)c1C(=O)NCCN1CCCC1` [Form I], in data set [5], the “relative stability of the solid phase” value is “most stable solid phase”.
